ChEMBL document CHEMBL4507260 (2021)

How the values were obtained:
Settings in all cases: Compound concentration 1000.0 nM
[1] = tested on: Tyrosine-protein kinase ABL1 (Homo sapiens), P00519 [Q252H]
[2] = molecular target: Tyrosine-protein kinase ABL2 (Homo sapiens) (UniProt P42684)
[3] = molecular target: Calcium/calmodulin-dependent protein kinase type 1 (Homo sapiens) (UniProt Q14012)
[4] = molecular target: Citron Rho-interacting kinase (Homo sapiens) (UniProt O14578)
[5] = molecular target: Casein kinase I isoform alpha-like (Homo sapiens) (UniProt Q8N752)
[6] = molecular target: Casein kinase II subunit alpha' (Homo sapiens) (UniProt P19784)
[7] = molecular target: Death-associated protein kinase 2 (Homo sapiens) (UniProt Q9UIK4)
[8] = molecular target: Serine/threonine-protein kinase DCLK1 (Homo sapiens) (UniProt O15075)
[9] = molecular target: Mitogen-activated protein kinase kinase kinase 12 (Homo sapiens) (UniProt Q12852)
[10] = molecular target: Dual specificity tyrosine-phosphorylation-regulated kinase 1B (Homo sapiens) (UniProt Q9Y463)
[11] = molecular target: Ephrin type-A receptor 2 (Homo sapiens) (UniProt P29317)
[12] = molecular target: Ephrin type-A receptor 7 (Homo sapiens) (UniProt Q15375)
[13] = molecular target: Ephrin type-A receptor 8 (Homo sapiens) (UniProt P29322)
[14] = molecular target: Ephrin type-B receptor 1 (Homo sapiens) (UniProt P54762)
[15] = molecular target: Ephrin type-B receptor 3 (Homo sapiens) (UniProt P54753)
Ephrin type-B receptor 3 (Homo sapiens), sequence (P54753 whole entry): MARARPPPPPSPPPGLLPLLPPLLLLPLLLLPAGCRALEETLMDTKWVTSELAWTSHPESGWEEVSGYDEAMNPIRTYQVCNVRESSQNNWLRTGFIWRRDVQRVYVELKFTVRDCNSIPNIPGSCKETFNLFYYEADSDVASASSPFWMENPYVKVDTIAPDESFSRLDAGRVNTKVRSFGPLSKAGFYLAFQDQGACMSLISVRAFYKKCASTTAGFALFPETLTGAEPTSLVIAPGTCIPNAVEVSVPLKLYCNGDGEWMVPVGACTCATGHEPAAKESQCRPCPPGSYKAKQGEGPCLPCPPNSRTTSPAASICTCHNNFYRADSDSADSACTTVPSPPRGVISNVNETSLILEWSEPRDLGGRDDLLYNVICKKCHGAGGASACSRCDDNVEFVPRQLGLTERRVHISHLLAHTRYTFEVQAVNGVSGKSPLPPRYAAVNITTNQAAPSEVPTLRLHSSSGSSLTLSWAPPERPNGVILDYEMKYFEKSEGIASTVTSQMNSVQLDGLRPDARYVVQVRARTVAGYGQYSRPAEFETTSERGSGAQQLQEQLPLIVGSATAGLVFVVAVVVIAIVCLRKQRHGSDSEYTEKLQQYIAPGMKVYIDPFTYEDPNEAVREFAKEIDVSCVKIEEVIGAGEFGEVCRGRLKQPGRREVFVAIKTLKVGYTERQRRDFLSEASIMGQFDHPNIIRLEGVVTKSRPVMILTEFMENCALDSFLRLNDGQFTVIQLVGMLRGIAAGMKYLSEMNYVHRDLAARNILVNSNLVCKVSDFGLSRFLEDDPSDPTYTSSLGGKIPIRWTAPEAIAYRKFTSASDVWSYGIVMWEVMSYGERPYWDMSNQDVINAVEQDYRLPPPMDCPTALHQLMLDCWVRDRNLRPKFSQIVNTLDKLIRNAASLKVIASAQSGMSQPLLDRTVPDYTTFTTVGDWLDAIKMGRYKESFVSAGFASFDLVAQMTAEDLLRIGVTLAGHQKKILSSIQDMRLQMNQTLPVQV

[16] = molecular target: Beta-adrenergic receptor kinase 1 (Homo sapiens) (UniProt P25098)
Beta-adrenergic receptor kinase 1 (Homo sapiens), sequence (P25098 whole entry): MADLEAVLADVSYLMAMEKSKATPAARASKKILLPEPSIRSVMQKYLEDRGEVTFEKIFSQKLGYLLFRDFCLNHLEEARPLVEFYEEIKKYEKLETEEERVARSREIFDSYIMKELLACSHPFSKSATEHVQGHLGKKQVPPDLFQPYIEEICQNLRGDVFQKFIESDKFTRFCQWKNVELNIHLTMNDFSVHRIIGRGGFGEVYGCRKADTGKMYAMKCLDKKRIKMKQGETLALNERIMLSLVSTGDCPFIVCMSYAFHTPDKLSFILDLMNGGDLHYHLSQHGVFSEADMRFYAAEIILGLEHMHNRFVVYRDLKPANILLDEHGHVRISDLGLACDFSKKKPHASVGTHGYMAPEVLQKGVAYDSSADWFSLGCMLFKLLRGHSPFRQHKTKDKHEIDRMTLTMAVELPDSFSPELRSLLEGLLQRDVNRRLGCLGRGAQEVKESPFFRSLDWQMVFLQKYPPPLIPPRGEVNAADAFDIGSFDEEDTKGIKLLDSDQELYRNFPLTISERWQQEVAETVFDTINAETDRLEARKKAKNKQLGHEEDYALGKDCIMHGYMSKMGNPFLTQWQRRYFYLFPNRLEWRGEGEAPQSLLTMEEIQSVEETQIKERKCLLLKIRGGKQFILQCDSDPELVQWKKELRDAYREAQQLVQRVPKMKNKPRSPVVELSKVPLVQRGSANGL

[17] = molecular target: Insulin receptor (Homo sapiens) (UniProt P06213)
[18] = molecular target: Tyrosine-protein kinase JAK1 (Homo sapiens) (UniProt P23458)
[19] = tested on: Mast/stem cell growth factor receptor Kit (Homo sapiens), P10721 [A829P]
Mast/stem cell growth factor receptor Kit (Homo sapiens), P10721 [A829P], sequence (P10721 whole entry A829P): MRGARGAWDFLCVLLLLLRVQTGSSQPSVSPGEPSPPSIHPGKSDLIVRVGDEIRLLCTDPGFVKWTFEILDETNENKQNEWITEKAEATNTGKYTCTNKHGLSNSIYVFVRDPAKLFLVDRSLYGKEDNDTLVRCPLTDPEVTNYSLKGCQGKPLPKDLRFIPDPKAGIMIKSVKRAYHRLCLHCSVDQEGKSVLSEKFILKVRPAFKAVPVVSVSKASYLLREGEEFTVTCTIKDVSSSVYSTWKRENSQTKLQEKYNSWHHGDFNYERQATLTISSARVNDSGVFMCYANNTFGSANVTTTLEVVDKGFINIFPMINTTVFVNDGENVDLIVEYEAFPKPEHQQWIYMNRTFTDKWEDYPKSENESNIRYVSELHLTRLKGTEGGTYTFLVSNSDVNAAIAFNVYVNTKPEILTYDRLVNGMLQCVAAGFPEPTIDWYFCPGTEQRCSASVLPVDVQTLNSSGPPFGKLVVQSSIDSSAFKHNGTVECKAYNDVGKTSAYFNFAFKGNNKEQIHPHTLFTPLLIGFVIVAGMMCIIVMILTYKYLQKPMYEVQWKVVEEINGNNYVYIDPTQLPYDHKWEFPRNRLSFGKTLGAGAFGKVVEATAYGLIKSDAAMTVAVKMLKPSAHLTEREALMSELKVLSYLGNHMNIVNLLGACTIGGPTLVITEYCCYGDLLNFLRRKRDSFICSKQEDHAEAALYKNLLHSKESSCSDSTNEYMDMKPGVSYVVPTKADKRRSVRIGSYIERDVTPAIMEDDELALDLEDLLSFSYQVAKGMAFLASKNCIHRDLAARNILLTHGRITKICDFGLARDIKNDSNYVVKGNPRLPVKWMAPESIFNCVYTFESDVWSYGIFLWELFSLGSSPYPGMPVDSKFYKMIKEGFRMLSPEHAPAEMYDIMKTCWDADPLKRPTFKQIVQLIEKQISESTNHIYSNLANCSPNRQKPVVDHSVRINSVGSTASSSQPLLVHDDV

[20] = tested on: Mast/stem cell growth factor receptor Kit (Homo sapiens), P10721 [V559D,T670I]
Mast/stem cell growth factor receptor Kit (Homo sapiens), P10721 [V559D,T670I], sequence (P10721 whole entry V559D/T670I): as the sequence (P10721 whole entry A829P) above, with V559D, T670I, P829A counted along it

[21] = molecular target: Mitogen-activated protein kinase kinase kinase 15 (Homo sapiens) (UniProt Q6ZN16)
[22] = molecular target: Mitogen-activated protein kinase kinase kinase kinase 3 (Homo sapiens) (UniProt Q8IVH8)
[23] = molecular target: Serine/threonine-protein kinase MARK2 (Homo sapiens) (UniProt Q7KZI7)
[24] = molecular target: Microtubule-associated serine/threonine-protein kinase 1 (Homo sapiens) (UniProt Q9Y2H9)
[25] = molecular target: Dual specificity mitogen-activated protein kinase kinase 2 (Homo sapiens) (UniProt P36507)
[26] = molecular target: Dual specificity mitogen-activated protein kinase kinase 6 (Homo sapiens) (UniProt P52564)
[27] = molecular target: Serine/threonine-protein kinase MRCK beta (Homo sapiens) (UniProt Q9Y5S2)
[28] = molecular target: Myosin light chain kinase 2, skeletal/cardiac muscle (Homo sapiens) (UniProt Q9H1R3)
[29] = molecular target: Myosin light chain kinase family member 4 (Homo sapiens) (UniProt Q86YV6)
Myosin light chain kinase family member 4 (Homo sapiens), sequence (Q86YV6 whole entry): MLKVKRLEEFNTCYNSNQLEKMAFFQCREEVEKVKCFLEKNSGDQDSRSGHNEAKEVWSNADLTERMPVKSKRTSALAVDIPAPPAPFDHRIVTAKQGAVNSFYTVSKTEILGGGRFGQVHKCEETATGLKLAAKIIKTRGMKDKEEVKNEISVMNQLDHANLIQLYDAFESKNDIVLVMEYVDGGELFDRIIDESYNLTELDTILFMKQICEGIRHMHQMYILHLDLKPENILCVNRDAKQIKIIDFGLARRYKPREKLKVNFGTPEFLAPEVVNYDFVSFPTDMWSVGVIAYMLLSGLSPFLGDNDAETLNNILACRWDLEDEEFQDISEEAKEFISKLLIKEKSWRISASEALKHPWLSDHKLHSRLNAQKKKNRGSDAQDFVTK

[30] = molecular target: Serine/threonine-protein kinase 38 (Homo sapiens) (UniProt Q15208)
[31] = molecular target: Cyclin-dependent kinase 2 homolog (Plasmodium falciparum (isolate 3D7)) (UniProt P61075)
[32] = molecular target: Phosphatidylinositol 4,5-bisphosphate 3-kinase catalytic subunit delta isoform (Homo sapiens) (UniProt O00329)
[33] = molecular target: Phosphatidylinositol 4,5-bisphosphate 3-kinase catalytic subunit gamma isoform (Homo sapiens) (UniProt P48736)
[34] = molecular target: cAMP-dependent protein kinase catalytic subunit alpha (Homo sapiens) (UniProt P17612)
[35] = molecular target: Protein kinase C eta type (Homo sapiens) (UniProt P24723)
[36] = molecular target: cGMP-dependent protein kinase 1 (Homo sapiens) (UniProt Q13976)
cGMP-dependent protein kinase 1 (Homo sapiens), sequence (Q13976 whole entry): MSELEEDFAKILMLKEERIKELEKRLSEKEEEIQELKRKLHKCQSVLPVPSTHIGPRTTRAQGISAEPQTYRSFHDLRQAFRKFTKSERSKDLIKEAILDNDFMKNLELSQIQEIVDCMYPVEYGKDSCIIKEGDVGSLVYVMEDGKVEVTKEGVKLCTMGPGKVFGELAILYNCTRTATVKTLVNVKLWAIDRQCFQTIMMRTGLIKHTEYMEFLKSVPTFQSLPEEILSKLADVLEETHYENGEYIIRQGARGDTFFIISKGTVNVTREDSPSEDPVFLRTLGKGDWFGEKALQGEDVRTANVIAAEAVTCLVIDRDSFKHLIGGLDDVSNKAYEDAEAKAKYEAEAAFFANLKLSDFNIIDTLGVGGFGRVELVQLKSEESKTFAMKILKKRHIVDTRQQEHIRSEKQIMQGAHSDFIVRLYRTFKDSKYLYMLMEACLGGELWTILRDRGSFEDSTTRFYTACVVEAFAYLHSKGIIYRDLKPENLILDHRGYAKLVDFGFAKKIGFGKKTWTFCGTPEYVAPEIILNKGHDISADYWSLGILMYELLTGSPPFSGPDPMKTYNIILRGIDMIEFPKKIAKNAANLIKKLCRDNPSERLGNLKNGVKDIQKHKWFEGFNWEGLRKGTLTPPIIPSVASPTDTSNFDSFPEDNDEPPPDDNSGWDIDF

[37] = molecular target: STE20-like serine/threonine-protein kinase (Homo sapiens) (UniProt Q9H2G2)
[38] = molecular target: Tyrosine-protein kinase Srms (Homo sapiens) (UniProt Q9H3Y6)
[39] = molecular target: Angiopoietin-1 receptor (Homo sapiens) (UniProt Q02763)
[40] = molecular target: Serine/threonine-protein kinase TNNI3K (Homo sapiens) (UniProt Q59H18)
[41] = molecular target: BDNF/NT-3 growth factors receptor (Homo sapiens) (UniProt Q16620)
BDNF/NT-3 growth factors receptor (Homo sapiens), sequence (Q16620 32-822 limits assumed): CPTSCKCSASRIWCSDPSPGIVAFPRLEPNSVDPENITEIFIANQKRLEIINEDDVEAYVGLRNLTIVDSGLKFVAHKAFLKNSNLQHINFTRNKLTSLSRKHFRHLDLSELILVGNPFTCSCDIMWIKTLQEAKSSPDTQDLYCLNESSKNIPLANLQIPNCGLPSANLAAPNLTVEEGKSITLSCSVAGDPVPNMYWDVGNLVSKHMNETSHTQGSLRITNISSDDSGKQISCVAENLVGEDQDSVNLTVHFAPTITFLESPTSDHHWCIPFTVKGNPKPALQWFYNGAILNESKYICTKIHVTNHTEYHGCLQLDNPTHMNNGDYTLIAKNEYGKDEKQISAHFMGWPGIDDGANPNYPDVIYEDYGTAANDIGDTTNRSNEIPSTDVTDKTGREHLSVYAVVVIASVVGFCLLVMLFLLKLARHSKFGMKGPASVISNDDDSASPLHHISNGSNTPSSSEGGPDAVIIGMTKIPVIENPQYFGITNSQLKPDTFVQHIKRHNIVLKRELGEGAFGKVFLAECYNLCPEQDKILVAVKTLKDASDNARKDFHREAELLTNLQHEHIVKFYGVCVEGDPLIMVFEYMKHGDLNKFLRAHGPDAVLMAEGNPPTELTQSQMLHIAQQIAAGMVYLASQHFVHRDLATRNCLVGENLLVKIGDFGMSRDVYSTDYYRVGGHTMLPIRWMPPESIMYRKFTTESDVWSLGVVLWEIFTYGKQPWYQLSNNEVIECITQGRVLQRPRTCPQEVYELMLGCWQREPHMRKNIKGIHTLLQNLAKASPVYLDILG

[42] = molecular target: NT-3 growth factor receptor (Homo sapiens) (UniProt Q16288)
[43] = molecular target: Testis-specific serine/threonine-protein kinase 1 (Homo sapiens) (UniProt Q9BXA7)
[44] = molecular target: Serine/threonine-protein kinase ULK3 (Homo sapiens) (UniProt Q6PHR2)
Serine/threonine-protein kinase ULK3 (Homo sapiens), sequence (Q6PHR2 whole entry): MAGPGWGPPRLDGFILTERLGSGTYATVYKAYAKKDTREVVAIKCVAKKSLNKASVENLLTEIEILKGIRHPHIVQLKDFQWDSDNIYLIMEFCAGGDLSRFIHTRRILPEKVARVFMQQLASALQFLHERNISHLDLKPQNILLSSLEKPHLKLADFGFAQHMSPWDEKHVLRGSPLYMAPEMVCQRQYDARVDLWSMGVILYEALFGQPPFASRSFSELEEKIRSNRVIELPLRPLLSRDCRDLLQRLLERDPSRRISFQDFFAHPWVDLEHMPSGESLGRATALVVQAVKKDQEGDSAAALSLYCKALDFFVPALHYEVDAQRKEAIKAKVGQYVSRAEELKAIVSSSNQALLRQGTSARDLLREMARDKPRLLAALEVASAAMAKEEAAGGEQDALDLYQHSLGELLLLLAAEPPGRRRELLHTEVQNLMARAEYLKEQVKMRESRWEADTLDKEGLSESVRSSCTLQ

[45] = molecular target: Serine/threonine-protein kinase WNK1 (Homo sapiens) (UniProt Q9H4A3)

Measured: residual activity

c1ccc(N2CCN(Cc3nc4ccccc4[nH]3)CC2)nc1 [ABT-724]
inactive: [1] 100% | [2] 100% | [3] 100% | [4] 88% | [5] 100% | [6] 100% | [7] 86% | [8] 100% | [9] 97% | [10] 100% | [11] 100% | [12] 100% | [13] 100% | [14] 100% | [15] 100% | [16] 90% | [17] 100% | [18] 91% | [19] 100% | [20] 95% | [21] 100% | [22] 100% | [23] 100% | [24] 65% | [25] 100% | [26] 100% | [27] 100% | [28] 91% | [29] 97% | [30] 89% | [31] 100% | [32] 69% | [33] 100% | [34] 91% | [35] 89% | [36] 100% | [37] 93% | [38] 94% | [39] 94% | [40] 100% | [41] 100% | [42] 87% | [43] 100% | [44] 100% | [45] 100%

CSc1cccnc1N1CCN(Cc2nc3ccccc3[nH]2)CC1 [A-769]
inactive: [1] 71% | [2] 98% | [3] 100% | [4] 100% | [5] 100% | [6] 100% | [7] 100% | [8] 82% | [9] 74% | [10] 91% | [11] 100% | [12] 93% | [13] 95% | [14] 99% | [15] 93% | [16] 93% | [17] 85% | [18] 100% | [19] 100% | [20] 100% | [21] 67% | [22] 100% | [23] 100% | [24] 100% | [25] 70% | [26] 100% | [27] 100% | [28] 100% | [29] 100% | [30] 88% | [31] 92% | [32] 100% | [33] 64% | [34] 92% | [35] 100% | [36] 100% | [37] 100% | [38] 100% | [39] 100% | [40] 100% | [41] 100% | [42] 83% | [43] 100% | [44] 81% | [45] 100%
